Columns and labels:
L5178Y [1] = experiment: Inhibitory concentration of compound was calculated on L5178Y cells by using clonal assay; format: functional, cell-based, Mus musculus
NIH3T3 [2] = experiment: Inhibitory concentration was calculated on 3T3 cells by using growth assay; format: functional, cell-based, Mus musculus
L5178Y [3] = experiment: Inhibitory concentration of compound rwas calculated on L5178Y cells by [3H]Thd incorporation; format: functional, cell-based, Mus musculus
L5178Y [4] = experiment: Inhibitory concentration of compound was calculated on L5178Y cells by [14C]Leu incorporation; format: functional, cell-based, Mus musculus
NIH3T3 [5] = experiment: Inhibitory concentration of compound rwas calculated on 3T3 cells by [3H]Thd incorporation; format: functional, cell-based, Mus musculus
NIH3T3 [6] = experiment: Inhibitory concentration of compound was calculated on 3T3 cells by using clonal assay; format: functional, cell-based, Mus musculus
L5178Y [7] = experiment: Inhibitory concentration of compound was calculated on L5178Y cells by using growth assay; format: functional, cell-based, Mus musculus
NIH3T3 [8] = experiment: Inhibitory concentration of compound was calculated on 3T3 cells by [14C]Leu incorporation; format: functional, cell-based, Mus musculus
[9] = biological target: Thymidylate synthase (Mus musculus) (UniProt P07607)
Description: The time dependent reaction (k2''(1/min)) of compound was measured for inactivation of Ehrlich Carcinoma Thymidylate Synthase

[10] = biological target: Thymidylate synthase (Mus musculus) (UniProt P07607); remark: listed apart in the source
Description: The reaction rate(Ki') of compound was measured for inactivation of Ehrlich Carcinoma Thymidylate Synthases

[11] = biological target: Thymidylate synthase (Mus musculus) (UniProt P07607); remark: listed apart in the source
Description: The reaction rate(Ki'') of compound was measured for inactivation of L1210 Thymidylate Synthase

[12] = biological target: Thymidylate synthase (Mus musculus) (UniProt P07607); remark: listed apart in the source
Description: The time dependent reaction (k2''(1/min)) of compound was measured for inactivation of L1210 Thymidylate Synthase

[13] = biological target: Thymidylate synthase (Mus musculus) (UniProt P07607); remark: listed apart in the source
Description: The reaction rate(Ki'') of compound was measured for inactivation of Ehrlich Carcinoma Thymidylate Synthases

Thymidylate synthase [14] = biological target: T1, Thymidylate synthase (Mus musculus, UniProt P07607); experiment: Apparent Ki value was measured by competitive inhibition of Thymidylate Synthase from Ehrlich Carcinoma cells of mouse; format: cell-based
[15] = biological target: Thymidylate synthase (Mus musculus) (UniProt P07607); remark: listed apart in the source
Description: The time dependent reaction (k2'(1/min)) of compound was measured for inactivation of L1210 Thymidylate Synthase

Thymidylate synthase [16] = biological target: T1, Thymidylate synthase; experiment: Apparent Ki value was measured by competitive inhibition of Thymidylate Synthase from L1210 cells of mouse; format: cell-based
[17] = biological target: Thymidylate synthase (Mus musculus) (UniProt P07607); remark: listed apart in the source
Description: The reaction rate(Ki') of compound was measured for inactivation of L1210 Thymidylate Synthase

[18] = biological target: Thymidylate synthase (Mus musculus) (UniProt P07607); remark: listed apart in the source
Description: The time dependent reaction (k2''(1/min)) of compound was measured for inactivation of Ehrlich Carcinoma Thymidylate Synthases

[19] = biological target: Thymidylate synthase (Mus musculus) (UniProt P07607); remark: listed apart in the source
Description: The time dependent reaction (k2''(1/min)) of compound was measured for inactivation of L1210 Thymidylate Synthases

[20] = biological target: Thymidylate synthase (Mus musculus) (UniProt P07607); remark: listed apart in the source
Description: The reaction rate(Ki') of compound was measured for inactivation of L1210 Thymidylate Synthases

[21] = biological target: Thymidylate synthase (Mus musculus) (UniProt P07607); remark: listed apart in the source
Description: The time dependent reaction (k2'(1/min)) of compound was measured for inactivation of Ehrlich Carcinoma Thymidylate Synthases

[22] = biological target: Thymidylate synthase (Mus musculus) (UniProt P07607); remark: listed apart in the source
Description: The time dependent reaction (k2'(1/min)) of compound was measured for inactivation of L1210 Thymidylate Synthases

[23] = biological target: Thymidylate synthase (Mus musculus) (UniProt P07607); remark: listed apart in the source
Description: The reaction rate(Ki'') of compound was measured for inactivation of L1210 Thymidylate Synthases

Sequence of Thymidylate synthase (Mus musculus) (P07607 whole entry, looked up): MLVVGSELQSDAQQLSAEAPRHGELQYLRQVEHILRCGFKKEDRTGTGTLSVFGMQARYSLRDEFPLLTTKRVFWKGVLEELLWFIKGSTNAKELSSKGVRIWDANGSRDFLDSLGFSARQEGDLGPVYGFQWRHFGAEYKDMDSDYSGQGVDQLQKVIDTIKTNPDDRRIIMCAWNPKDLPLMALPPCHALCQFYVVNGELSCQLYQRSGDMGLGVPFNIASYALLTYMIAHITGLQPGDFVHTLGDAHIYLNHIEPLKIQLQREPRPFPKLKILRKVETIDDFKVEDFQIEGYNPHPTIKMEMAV
T1 sequence (P07607 whole entry): as the sequence (P07607 whole entry, looked up) above

| IC50 (L5178Y [1]; l5178y) [µM] | IC50 (L5178Y [3]; l5178y) [µM] | IC50 (L5178Y [4]; l5178y) [µM] | IC50 (L5178Y [1]; Mus musculus, L5178Y) [µM] | IC50 (L5178Y [3]; Mus musculus, L5178Y) [µM] | IC50 (L5178Y [4]; Mus musculus, L5178Y) [µM] | SMILES | IC50 (NIH3T3 [2]; nih3t3) [µM] | IC50 (NIH3T3 [5]; nih3t3) [µM] | IC50 (NIH3T3 [6]; nih3t3) [µM] | IC50 (L5178Y [7]; l5178y) [µM] | IC50 (NIH3T3 [8]; nih3t3) [µM] | IC50 (NIH3T3 [2]; Mus musculus, NIH3T3) [µM] | IC50 (NIH3T3 [5]; Mus musculus, NIH3T3) [µM] | IC50 (NIH3T3 [6]; Mus musculus, NIH3T3) [µM] | IC50 (L5178Y [7]; Mus musculus, L5178Y) [µM] | IC50 (NIH3T3 [8]; Mus musculus, NIH3T3) [µM] | Ki' [10] [µM] | Ki'' [13] [µM] | k2' [18] [min⁻¹] | other results |
| --- | --- | --- | --- | --- | --- | --- | --- | --- | --- | --- | --- | --- | --- | --- | --- | --- | --- | --- | --- | --- |
| 0.02 | 0.015 | 0.009 |  |  |  | O=c1[nH]c(=O)n([C@H]2C[C@H](O)[C@@H](CO)O2)cc1F (stereo in doubt) [FLOXURIDINE] | 1 | 0.5 | 0.6 | 0.025 | 3.2 |  |  |  |  |  |  |  |  |  |
|  |  |  | 20 | 10 | 10 | O=c1[nH]c(=S)n([C@@H]2C[C@H](O)[C@@H](CO)O2)cc1F |  |  |  |  |  | 400 | 100 | 500 | 25 | 2000 |  |  |  |  |
| 5 | 4 | 2 |  |  |  | O=c1[nH]c(=O)n([C@H]2C[C@H](O)[C@@H](CO)O2)cc1F (stereo in doubt; 22) [FLOXURIDINE] | 150 | 60 | 60 | 5 | 250 |  |  |  |  |  |  |  |  |  |
|  |  |  |  |  |  | O=c1[nH]c(=S)n(C2C[C@@H](OP(=O)(O)O)[C@@H](COP(=O)(O)O)O2)cc1F (stereo not given in full) |  |  |  |  |  |  |  |  |  |  | 0.079 | 0.049 | 0.36 | k2'' [9]: 0.06 min⁻¹; Ki'' [11]: 0.046 µM; k2'' [12]: 0.02 min⁻¹; Ki (Thymidylate synthase [14]): 0.14 µM; k2' [15]: 0.12 min⁻¹; Ki (Thymidylate synthase [16]): 0.07 µM; Ki' [17]: 0.041 µM |
|  |  |  |  |  |  | O=c1[nH]c(=O)n([C@H]2C[C@H](O)[C@@H](COP(=O)(O)O)O2)cc1F |  |  |  |  |  |  |  |  |  |  | 0.0055 | 0.071 | 0.18 | k2' [19]: 0.17 min⁻¹; Ki' [20]: 0.0018 µM; k2'' [21]: 0.17 min⁻¹; k2'' [22]: 0.12 min⁻¹; Ki'' [23]: 0.02 µM |
|  |  |  | 4.5 | 1.4 | 1 | O=c1[nH]c(=S)n([C@H]2C[C@H](O)[C@@H](CO)O2)cc1F |  |  |  |  |  | 4 | 4 | 7 | 2 | 5 |  |  |  |  |

Reference: ChEMBL document CHEMBL1126901, “2-Thio derivatives of dUrd and 5-fluoro-dUrd and their 5'-monophosphates: synthesis, interaction with tumor thymidylate synthase, and in vitro antitumor activity” (J Med Chem, 1993)
